Test results: EPA's ToxValDB 9.5

Experiments:
[1] = chronic, duration: 2 years, M/F, clinical chemistry
[2] = subchronic, duration: 90 days, clinical chemistry
[3] = subchronic, duration: 90 days, oral, diet, Wistar, no effects
[4] = subchronic, duration: 90 days, oral, diet, M/F, Sprague-Dawley, no effects
[5] = reproduction developmental, histopathology: nonneoplastic
[6] = subchronic, duration: 90 days, oral, diet, M/F, no effects

Work on `CCOC(=O)C1OC1(C)c1ccccc1` (stereo unspecified) [Ethyl methylphenylglycidate] yielded an NOAEL (Rattus norvegicus; [1]) of 35 mg/kg-day.

Work on `Clc1ccc(-c2ccc(Cl)cc2Cl)cc1` [2,4,4'-Trichlorobiphenyl] yielded an NOAEL (Rattus norvegicus; [2]) of 0.4 mg/kg-day.

`CC(C)CCCCCCOC(=O)C1CCCCC1C(=O)OCCCCCCC(C)C` (stereo unspecified) [Diisononyl cyclohexane-1,2-dicarboxylate] gave an NOAEL (Rattus norvegicus; subchronic, duration: 13 weeks, M/F, Wistar, clinical chemistry) of 100 mg/kg-day.

`COc1cc(CCCS(=O)(=O)[O-])ccc1OC(Cc1cccc(OC)c1O)CS(=O)(=O)[O-].[Ca+2]` (stereo unspecified) [Lignosulfonic acid, calcium salt] gave an NOAEL (Rattus norvegicus; [3]) of 2000 mg/kg-day.

Work on `CC(S)C(C)S` (stereo unspecified) [2,3-Butanedithiol] yielded an NOAEL (Rattus norvegicus; [4]) of 0.703 mg/kg-day.

`O=P(c1ccccc1)(c1ccccc1)c1ccccc1` [Triphenylphosphine oxide] was tested, and the NOEL (Rattus norvegicus; [2]) was 2 mg/kg-day.

With `CCOC(=O)c1ccoc1-c1ccccc1` [3-Furancarboxylic acid, 2-phenyl-, ethyl ester] the NOEL (Rattus norvegicus; subchronic, duration: 90 days, oral, diet) was 13 mg/kg-day.

Compound `CC1S[C@H](C)N[C@H](C)S1` (stereo partly specified) [Thialdine] has an NOAEL (Rattus norvegicus; subchronic, duration: 90 days, oral, diet, M, histopathology: nonneoplastic) of 9.3 mg/kg-day.

`CC(C)(CO)C1OCC2(CO1)COC(C(C)(C)CO)OC2` (stereo unspecified) showed an NOAEL (Rattus norvegicus; subchronic, duration: 90 days, oral, M/F, Sprague-Dawley, no effects) of 2000 mg/kg-day.

For `O=c1ccc2ccccc2o1` [Coumarin], the NOAEL (Canidae; chronic, duration: 2 years, Dog Other, histopathology: nonneoplastic) was 10 mg/kg-day.

With `ClC1=C(Cl)[C@]2(Cl)[C@@H]3[C@@H]4C[C@@H]([C@H]5O[C@@H]45)[C@@H]3[C@@]1(Cl)C2(Cl)Cl` [Dieldrin] the LD50 (Rattus norvegicus; acute, oral, mortality) was 25 mg/kg-day.

Compound `OC1CSC(O)CS1` (stereo unspecified) [1,4-Dithiane-2,5-diol] has an NOAEL (Rattus norvegicus; [4]) of 3.14 mg/kg-day.

Work on `CCCCCCCCCCCCCCCCCC(=O)OC(C)C(=O)OC(C)C(=O)[O-].CCCCCCCCCCCCCCCCCC(=O)OC(C)C(=O)OC(C)C(=O)[O-].[Ca+2]` (stereo unspecified) [Calcium stearoyl-2-lactylate] yielded an NOAEL (Rattus norvegicus; chronic, duration: 1 years, M/F, Wistar, no effects) of 2200 mg/kg-day.

In the case of `CC(C)CC(=O)N1CCC[C@H](COc2cccc3c2C(N)=NS(=O)(=O)N3)C1`, the NOAEL (Rattus norvegicus; reproduction developmental, duration: 15 days, oral, gavage, no effects) is reported as 1000 mg/kg-day and the NOAEL (Rattus norvegicus; subchronic, duration: 13 weeks, oral, diet, M/F, no effects) is reported as 100 mg/kg-day.

Work on `O=C([O-])c1cc(C(=O)[O-])c2c(n1)C(=O)C(=O)c1cc(C(=O)O)[nH]c1-2.[Na+].[Na+]` yielded an NOAEL (Rattus norvegicus; subchronic, duration: 90 days, oral, gavage, M/F, Crj:CD) of 100 mg/kg-day.

`NC(=O)c1ccc[n+]([C@@H]2O[C@H](CO)[C@@H](O)[C@H]2O)c1.[Cl-]` [Nicotinamide riboside chloride] gave an NOAEL (Canidae; short-term, duration: 28 days, oral, gavage, M/F, Beagle, clinical chemistry) of 300 mg/kg-day, an NOAEL (Rattus norvegicus; developmental, duration: 15 days, oral, gavage, F, Sprague-Dawley, development) of 325 mg/kg-day and an NOAEL (Rattus norvegicus; subchronic, duration: 90 days, oral, gavage, M/F, Sprague-Dawley, body weight) of 300 mg/kg-day.

For `Cc1occc1SSSSc1ccoc1C` [Bis(2-methyl-3-furyl) tetrasulfide], the NOAEL (Rattus norvegicus; subchronic, duration: 90 days, oral, diet, M/F, Wistar, no effects) was 0.56 mg/kg-day.

Compound `O=C(c1ccccc1)c1ccccc1` [Benzophenone] has an LOAEL (Rattus norvegicus; [5]) of 6 mg/kg-day.

With `CCC(C)(C)c1ccc(O)c(C(C)(C)CC)c1` [2,4-Di-tert-pentylphenol] the NOAEL (Rattus norvegicus; subchronic, duration: 90 days, oral, M/F, Wistar, histopathology: nonneoplastic) was 5 mg/kg-day.

`CC(C)CCCCCCCOC(=O)c1ccccc1C(=O)OCCCCCCCC(C)C` [Diisodecyl phthalate] was tested, and the NOAEL (Canidae; subchronic, duration: 13 weeks, Dog Other, histopathology: nonneoplastic) was 15 mg/kg-day.

Compound `CC(C)=CCCC(C)C=O` (stereo unspecified) [2,6-Dimethylhept-5-enal] has an NOAEL (Rattus norvegicus; subchronic, duration: 3 months, oral, diet, M/F, organ weight) of 37 mg/kg-day.

Work on `COc1cc(/C=C/C(=O)CC(=O)/C=C/c2ccc(O)c(OC)c2)ccc1O` [Curcumin] yielded an NOAEL (Rattus norvegicus; reproduction developmental, duration: 24 weeks, oral, diet, M/F, body weight) of at least 250 mg/kg-day.

Work on `Cc1ccc(C(=O)c2ccccc2)cc1` [4-Methylbenzophenone] yielded an LOAEL (Rattus norvegicus; [5]) of 6 mg/kg-day.

For `CC(=O)CSCc1ccco1` [1-(2-Furfurylthio)propanone], the NOAEL (Rattus norvegicus; [6]) was 3.76 mg/kg-day.

Compound `COc1cc(COC(=O)CCCCCCC(C)C)ccc1O` [Dihydrocapsiate] has an NOAEL (Rattus norvegicus; chronic, duration: 26 weeks, oral, gavage, M/F, Sprague-Dawley, histopathology: nonneoplastic) of 300 mg/kg-day, an NOAEL (Rattus norvegicus; subchronic, duration: 13 weeks, oral, gavage, M/F, Sprague-Dawley, clinical chemistry) of 300 mg/kg-day and an NOAEL (Rattus norvegicus; subchronic, duration: 13 weeks, oral, gavage, M/F, Sprague-Dawley, organ weight) of 300 mg/kg-day.

`COC(=O)CCSCc1ccco1` [Methyl 3-{[(furan-2-yl)methyl]sulfanyl}propanoate] was tested, and the NOAEL (Rattus norvegicus; subchronic, duration: 90 days, oral, diet, M/F, clinical chemistry) was 5.78 mg/kg-day.

Compound `CCCCOC(=O)c1ccccc1C(=O)OCc1ccccc1` [Benzyl butyl phthalate] has an NOAEL (Rattus norvegicus; developmental, oral, diet, M/F, development) of 50 mg/kg-day.

`O=C([O-])c1[nH]n(-c2ccc(S(=O)(=O)[O-])cc2)c(=O)c1N=Nc1ccc(S(=O)(=O)[O-])cc1.[Na+].[Na+].[Na+]` [C.I. Acid Yellow 23] was tested, and the NOAEL (Rattus norvegicus; chronic, M, body weight) was 984 mg/kg-day.

`CCCCC(CC)COC(=O)c1ccc(C(=O)OCC(CC)CCCC)c(C(=O)OCC(CC)CCCC)c1` (stereo unspecified) [Tris(2-ethylhexyl) trimellitate] was tested, and the NOAEL (Rattus norvegicus; subchronic, duration: 90 days, oral, diet, M/F, Sprague-Dawley, organ weight) was 225 mg/kg-day.

In the case of `Clc1cc2c(cc1Cl)Oc1cc(Cl)c(Cl)cc1O2` [2,3,7,8-Tetrachlorodibenzo-p-dioxin], the LOAEL (Rattus norvegicus; reproduction developmental, injection, subcutaneous, Wistar, behavior) is reported as 2.5e-05 mg/kg-day.

Work on `C=C(C)c1ccc(C)cc1` [1-Methyl-4-(prop-1-en-2-yl)benzene] yielded an NOAEL (Rattus norvegicus; subchronic, duration: 90 days) of 0.625 mg/kg-day.

`[Cr+3]` [Chromium (III)] showed an NOAEL (Rattus norvegicus; chronic, duration: 2 years, oral, diet, M/F, Fischer 344, histopathology: neoplastic) of 286 mg/kg-day.

For `CC(C)=CC(=O)SC(C)C` [2-Butenethioic acid, 3-methyl-, S-(1-methylethyl) ester], the NOAEL (Rattus norvegicus; subchronic, duration: 90 days, oral) was 6.63 mg/kg-day.

`CCC1SSC(CC)S1` (stereo unspecified) [3,5-Diethyl-1,2,4-trithiolane] gave an NOAEL (Rattus norvegicus; [4]) of 0.2 mg/kg-day.

Work on `O=S(=O)([O-])c1ccc2c(N=Nc3ccc(S(=O)(=O)[O-])c4ccccc34)c(O)c(S(=O)(=O)[O-])cc2c1.[Na+].[Na+].[Na+]` [Amaranth] yielded an NOAEL (Rattus norvegicus; developmental, duration: 19 days, oral, gavage, F, Osborne-Mendel, development) of 15 mg/kg-day.

Compound `CCCCC/C=C/C=C/C(=O)NCC(C)C` [(E,E)-N-(2-Methylpropyl)-2,4-decadienamide] has an NOAEL (Rattus norvegicus; subchronic, duration: 90 days, oral, diet, M/F, Sprague-Dawley, histopathology: nonneoplastic) of 10 mg/kg-day.

`CC(=O)N[C@H]1[C@H](O[C@H]2[C@@H](O)[C@@H](CO)O[C@@H](O[C@@H]([C@H](O)[C@@H](O)C=O)[C@H](O)CO)[C@@H]2O)O[C@H](CO)[C@@H](O[C@@H]2O[C@H](CO)[C@H](O)[C@H](O)[C@H]2O)[C@@H]1O` [Lacto-N-neotetraose] was tested, and the NOAEL (Rattus norvegicus; subchronic, duration: 90 days, oral, gavage, M/F, Wistar, hematological) was 2500 mg/kg-day.

Work on `Cc1cc2nc3c(=O)[nH]c(=O)nc-3n(C[C@H](O)[C@H](O)[C@H](O)COP(=O)([O-])O)c2cc1C.[Na+]` [Riboflavin 5'-(dihydrogen phosphate), sodium salt (1:1)] yielded an NOAEL (Rattus norvegicus; subchronic, duration: 90 days, M/F, Wistar, no effects) of 160 mg/kg-day.

`CCCOC(=O)c1cc(O)c(O)c(O)c1` [Gallic acid n-propyl ester] was tested, and the NOAEL (Rattus norvegicus; subchronic, duration: 13 weeks, oral, diet, M/F, clinical chemistry) was 1910 mg/kg-day and the NOAEL (Rattus norvegicus; subchronic, duration: 90 days, oral, diet, M/F, hematological) was 135 mg/kg-day.

Work on `CC(O)CO` (stereo unspecified) [1,2-Propylene glycol] yielded an NOEL (Rattus norvegicus; chronic, duration: 2 years) of 2500 mg/kg-day.

In the case of `CCCNC(=O)C(C)(C)COc1cccc2c1C(N)=NS(=O)(=O)N2`, the NOAEL (Rattus norvegicus; [4]) is reported as 20 mg/kg-day.

Work on `CCOC(=O)C1OC1(C)c1ccc(C)cc1` (stereo unspecified) [Ethyl 3-methyl-3-(4-methylphenyl)oxirane-2-carboxylate] yielded an NOAEL (Rattus norvegicus; [1]) of 35 mg/kg-day.

Compound `CC1=C(O)C(=O)C(C)O1` (stereo unspecified) [4-Hydroxy-2,5-dimethyl-3(2H)furanone] has an NOAEL (Rattus norvegicus; chronic, duration: 2 years, M/F, body weight) of 200 mg/kg-day and an NOAEL (Rattus norvegicus; chronic, duration: 2 years, oral, diet, M/F, Sprague-Dawley, body weight) of 200 mg/kg-day.

`SCCCCCCCCS` [1,8-Octanedithiol] showed an NOAEL (Rattus norvegicus; [4]) of 0.705 mg/kg-day.

In the case of `CC/C=C/CCOC(=O)C(CC)CC` [Hex-3-enyl 2-ethylbutanoate], the NOAEL (Rattus norvegicus; reproduction developmental, duration: 10 days, oral, gavage, F, Sprague-Dawley, no effects) is reported as 200 mg/kg-day and the NOAEL (Rattus norvegicus; reproduction developmental, duration: 10 days, oral, gavage, F, no effects) is reported as 200 mg/kg-day.

`c1ccc(Oc2ccccc2)cc1` [Diphenyl oxide] showed an NOAEL (Rattus norvegicus; subchronic, duration: 90 days, oral, body weight) of 15 mg/kg-day.

`Cc1occc(=O)c1O` [Maltol] showed an NOEL (Rattus norvegicus; chronic, duration: 2 years, oral, diet) of 100 mg/kg-day.

With `CC(C)=O` [Acetone] the NOAEL (Rattus norvegicus; subchronic, duration: 90 days, oral, drinking water) was 900 mg/kg-day.

`Cc1ccc2ncccc2c1` [6-Methylquinoline] was tested, and the NOAEL (Rattus norvegicus; [6]) was 2.2 mg/kg-day.

With `CN(C)C` [Trimethylamine] the NOAEL (Rattus norvegicus; subchronic, duration: 90 days) was 90 mg/kg-day.

For `Cc1occc1SSCc1ccco1` [Furfuryl 2-methyl-3-furyl disulfide], the NOAEL (Rattus norvegicus; [3]) was 0.45 mg/kg-day.

With `CC(=O)c1cccc2ccccc12` [1'-Acetonaphthone] the NOAEL (Rattus norvegicus; [6]) was 33 mg/kg-day.

`C/C=C/C=C/C(=O)[O-].[K+]` [Potassium (E,E)-hexa-2,4-dienoate] gave an NOAEL (Rattus norvegicus; reproduction developmental, oral, gavage, M/F, Crj:CD, body weight) of 300 mg/kg-day.

Compound `Cc1cc(SSc2cc(C)oc2C)c(C)o1` [Furan, 3,3'-dithiobis[2,5-dimethyl-] has an NOAEL (Rattus norvegicus; subchronic, duration: 90 days, no effects) of 0.29 mg/kg-day.

For `c1ccc2cnccc2c1` [Isoquinoline], the NOAEL (Rattus norvegicus; subchronic, duration: 90 days, oral, gavage, M/F, Sprague-Dawley, no effects) was 3 mg/kg-day.

For `CC(C)(CO)[C@@H](O)C(=O)NCCC(=O)NCCSSCCNC(=O)CCNC(=O)[C@H](O)C(C)(C)CO` [Pantethine], the NOAEL (Rattus norvegicus; chronic, duration: 54 weeks, M/F, clinical chemistry) was 36 mg/kg-day.

`CC1CCC2(O1)C(C)(C)CCCC2(C)O` (stereo unspecified) [6-Hydroxydihydrotheaspirane] was tested, and the NOAEL (Rattus norvegicus; subchronic, duration: 90 days, oral, diet, M/F, Crj:CD, food efficiency) was 52 mg/kg-day.

Compound `OCc1ccccc1` [Benzyl alcohol] has an NOAEL (Rattus norvegicus; chronic, duration: 103 weeks, oral, gavage, M/F, no effects) of 400 mg/kg-day.
